Reference: patent US6372943B1, “Polyenepolycarboxylic acids, derivatives thereof with respect to carboxyl groups, or salts of these” (Fujisawa Pharmaceutical Co., Ltd., priority 1998, dated 2002)
Values belong to the molecule of their own block, whether it stands above or below them.

How the values were obtained:
[1] = Sequestering ability against calcium ion under alkaline condition (pH13) (Example 17); type: physicochemical
Procedure: First, a liquid for measurement was prepared in the following manner. Potassium oxalate (0.6 g) was dissolved in 0.1N sodium hydroxide (500 mL), and in the resulting solution (10 mL) was dissolved pentasodium salt of S1 compound (40) mg) or heptasodium salt of S2 compound (40 mg) to give the liquid for measurement. As a titrant was used 2.2% calcium acetate solution.
The titrant was added dropwise to this liquid for measurement under stirring until the liquid for measurement became turbid by precipitation of calcium oxalate to determine the titer used A (mL). Another liquid for measurement not containing any one of the test samples was also measured in the same manner as above to determine the titer of blank B (mL). Based on the titers A and B, the sequestering ability against calcium ion was calculated according to the following formula. For comparison, an existing chelating agent (EDTA·4Na) was treated in the same manner as above to calculate its sequestering ability against calcium ion.
Sequestering ability against calcium ion [Ca ion (mg)/test sample (1 g)]=(A−B)×(1 g/test sample amount precisely weighed)×5
wherein the numeral “5” is the amount of Ca ion (5 mg) equivalent to 1 mL of the 2.2% calcium acetate solution.

[2] = Dispersing activity, organic pigment in a non-aqueous system case 2, S0 anhydride in ethyl acetate (Example 15); conditions: supernatant 0.25 mL
Procedure: (§1) Into a test tube (16×150 mm) was scaled and collected 0.5 mL of a suspension of copper phthalocyanine blue in ethyl acetate (40 mg/10 mL) under stirring with a point mixer, and ethyl acetate (4.5 mL) was further added thereto.
(§2) To this suspension was added a solution of each of S1 and S2 anhydrides obtained in preparation example 1 in ethyl acetate (20 mg/2 mL), and ethyl acetate was further added thereto to give a total amount of 6 mL. This liquid was stirred with a point mixer for 15 seconds, treated with ultrasonic wave for 30 minutes, and then allowed to stand for 10 to 30 minutes. The resulting supernatant liquid (0.5 mL) was colle cted, admixed with ethyl acetate to give a total amount of 3 mL and then measured for absorbance at 660 wavelength. From the absorbance thus measured, the dispersibility was evaluated.
S0 anhydride obtained in preparation example 11 was treated in the same manner as in example 14. The resulting supernatant liquid (0.25 mL) was collected, admixed with ethyl acetate to give a total amount of 3 mL, and then measured for absorbance. From the absorbance thus measured, the dispersing activity was evaluated.

[3] = Dispersing activity, organic pigment in a non-aqueous system case 1, ethyl acetate (Example 14)
Procedure: as §1, §2

[4] = Dispersing activity, organic pigment in a non-aqueous system case 3, ethanol (Example 16); conditions: supernatant 0.25 mL
Procedure: as §1, §2
The same procedure as in example 14 except for the use of ethanol instead of ethyl acetate was performed. The amount of a supernatant liquid was 0.25 mL. From the absorbance thus measured, the dispersing activity was evaluated.

[5] = Detergent activity against artificially soiled cloth, Launder-o-meter (Example 19); conditions: additive 0.25 g/L in basic washing liquid; 20° C., 10 minutes; ratio to washing liquid with no addition
Procedure: A detergency test was conducted using a Launder-o-meter as a detergency tester by washing 15 pieces of artificially wet-soiled cloth (size: 5×5 cm, dirt composition: oleic acid 28.3%, triolein 15.6%, cholesterol oleate 12.2%, liquid paraffin 2.5%, squalene 2.5%, cholesterol 1.6%, gelatin 7.0%, soil matter 29.8% and carbon black 0.2-0.3%) available from SENTAKU KAGAKU KYOKAI (foundation) in a washing liquid (liquid temperature: 20° C.) of the composition shown in Table 25 for 10 minutes, followed by rinsing for three minutes.
Judgment was done in the following manner. The reflectivity of each of the 15 pieces of artificially soiled cloth was measured before and after the test by means of a spectrocolorizeter, and from the mean value of the measured values the detergency was calculated according to the formula of Kubelka and Munk. The ratio of the detergency calculated of a sample to the detergency of a washing liquid with no addition was found as a detergency ratio.

[6] = Dispersing activity, organic pigment in an aqueous system case 1, phthalocyanine green (Example 12); conditions: standing three hours
Procedure: Into a test tube (16×150 mm) were placed a phthalocyanine green suspension (5 mL: phthalocyanine green 16 mg/distilled water 200 mL) and the filtrate (evaporated to dryness) obtained in culture example 1 in a predetermined amount, followed by stirring for 15 seconds with a point mixer. After the stirring, the resulting mixture liquid was allowed to stand for three hours, and then the diameter of phthalocyanine green deposited on the bottom of the test tube was measured to evaluate the dispersibility from the diameter measured. That is, a greater diameter measured is indicative of better dispersibility. For comparison, the same procedure was taken with commercially available naphthalenesulfonate or lignin sulfonate.

Molecule: O=C([O-])CN(CCN(CC(=O)[O-])CC(=O)[O-])CC(=O)[O-].[Na+].[Na+].[Na+].[Na+] [EDTA · 4Na, EDTA·4Na]
Sequestering ability against calcium ion, Ca ion [1]: 92 mg/1 g of a test sample

Molecule: O=P(O)(O)OP(=O)(O)OP(=O)(O)O [Sodium tripolyphosphate]
Detergency ratio [5]: 1.38

Molecule: O=C([O-])CC(O)(CC(=O)[O-])C(=O)[O-].[Na+].[Na+].[Na+] [Trisodium citrate]
Detergency ratio [5]: 1.38

More lines, now with the values ahead:

Absorbance (660 nm) ([2]; amount added 0.5 mg): 0.84 | Absorbance (660 nm) ([2]; amount added 1.0 mg): 0.89
Molecule: CC/C=C/C1=C(CCC(=O)O)C(=O)OC1=O [S0 anhydride]

Absorbance (660 nm) ([3]; amount added 2.5 mg): 0.66 | Absorbance (660 nm) ([3]; amount added 5 mg): 1.27 | Absorbance (660 nm) ([3]; amount added 10 mg): 1.86 | Absorbance (660 nm) ([4]; amount added 0.25 mg): 0.05 | Absorbance (660 nm) ([4]; amount added 0.50 mg): 0.69 | Absorbance (660 nm) ([4]; amount added 1.00 mg): 0.63
Molecule: CC/C=C/C1=C(CC(CC)CC2=C(CCC(=O)O)C(=O)OC2=O)C(=O)OC1=O (stereo not shown) [S1 anhydride]

Diameter of phthalocyanine green deposited ([6]; 0.17 mg): 4 mm | Diameter of phthalocyanine green deposited ([6]; 0.85 mg): 5 mm | Diameter of phthalocyanine green deposited ([6]; 1.7 mg): 6 mm | Diameter of phthalocyanine green deposited ([6]; 8.5 mg): 6 mm | Diameter of phthalocyanine green deposited ([6]; 17 mg): 6 mm
Molecule: naphthalenesulfonate
